Test results: patent publication US20250144067A1, “PERSONALIZED STARVATION THERAPY FOR CANCER” (Faeth Therapeutics, Inc., priority 2021, published 2025)
Counter-ions that a name gives are not always drawn. Like-named read-outs stand apart in the source and are kept apart here.

What was measured:
[1] = tested on: NCI-H292 lung cancer cells; assay: FDA drug screening, complete media vs cholesterol-free media without statin (TABLE 1); format: cell-based, human
[2] = tested on: NCI-H292 lung cancer cells; assay: FDA drug screening, complete media vs cholesterol-free media with simvastatin (TABLE 2); format: cell-based, human
[3] = Complete minus Cholesterol-free, greater than 0 enhanced anti-cancer activity, about 0 neutral, below 0 antagonists
[4] = NCI-H292 cells in cholesterol-free media without statin
[5] = NCI-H292 cells in complete media
[6] = NCI-H292 cells, FDA drug library screen, cholesterol-free media with simvastatin 0.04 μM
[7] = NCI-H292 cells, FDA drug library screen, complete media
[8] = complete media minus cholesterol-free media + simvastatin, >0 enhanced anti-cancer activity, about 0 neutral, <0 antagonist
[9] = Complete minus Cholesterol-free, >0 enhanced anti-cancer activity, about 0 neutral, <0 antagonist
[10] = NCI-H292 cells, cholesterol-free media without statin
[11] = Complete minus Cholesterol-free, […]
[12] = NCI-H292 cells, cholesterol-free media without statin, FDA drug library screen
[13] = NCI-H292 cells, complete media, FDA drug library screen
[14] = complete media minus cholesterol-free media + simvastatin, […]
[15] = NCI-H292 cells, FDA library drug in cholesterol-free media with simvastatin 0.04 μM
[16] = NCI-H292 cells, FDA library drug in complete media
[17] = complete media vs cholesterol-free media + simvastatin (0.04 μM), […]
[18] = NCI-H292 cells, FDA drug library screen, cholesterol-free media without statin
[19] = complete media vs cholesterol-free media + simvastatin (0.04 μM), >0 enhanced anti-cancer activity, about 0 neutral, <0 antagonist

Compound: CN1CCCN=C1/C=C/c1cccc(O)c1.O=C(O)c1cc2ccccc2c(Cc2c(O)c(C(=O)O)cc3ccccc23)c1O [Oxantel (pamoate)]
- Difference [1, 3]: −0.51
- Cholesterol-free [1, 4]: 1.526
- Complete [1, 5]: 1.019
- Cholesterol-free media + simvastatin (0.04 μM) [2, 6]: 0.9072
- Complete Media [2, 7]: 1.051
- Difference [2, 8]: 0.14

Compound: COc1c(O)cc2c(c1O)[C@@H]1O[C@H](CO)[C@@H](O)[C@H](O)[C@H]1OC2=O [Bergenin]
- Difference [1, 9]: −0.21
- Cholesterol-free [1, 10]: 0.9949
- Complete ([1]; NCI-H292 cells, complete media): 0.7827
- Cholesterol-free media + simvastatin (0.04 μM) ([2]; NCI-H292 cells, cholesterol-free media with simvastatin 0.04 μM, cell growth value in FDA drug screen): 0.6754
- Complete Media ([2]; NCI-H292 cells, complete media, cell growth value in FDA drug screen): 0.7494
- Difference [2, 8]: 0.07

Compound: CC1=C(C)C(=O)C(CCCCCCCCCC[P+](c2ccccc2)(c2ccccc2)c2ccccc2)=CC1=O.[Br-] [Visomitin]
- Difference [1, 11]: −0.06
- Cholesterol-free [1, 12]: 0.06935
- Complete [1, 13]: 0.01194
- Cholesterol-free media + simvastatin (0.04 μM) ([2]; NCI-H292 cells, cholesterol-free media with simvastatin 0.04 μM, […]): 0.1378
- Complete Media ([2]; NCI-H292 cells, complete media, […]): 0.1554
- Difference [2, 14]: 0.02

Compound: CC[C@H](C)[C@H]1O[C@]2(CC[C@@H]1C)C[C@@H]1C[C@@H](C/C=C(\C)[C@@H](O[C@H]3C[C@H](OC)[C@@H](O[C@H]4C[C@H](OC)[C@@H](O)[C@H](C)O4)[C@H](C)O3)[C@@H](C)/C=C/C=C3\CO[C@@H]4[C@H](O)C(C)=C[C@@H](C(=O)O1)[C@]34O)O2 [Ivermectin]
- Difference [1, 11]: 0.00
- Cholesterol-free [1, 12]: 0.1454
- Complete [1, 13]: 0.1503
- Cholesterol-free media + simvastatin (0.04 μM) [2, 15]: 1.074
- Complete Media [2, 16]: 0.4557
- Difference [2, 17]: −0.62

Compound: Phentolamine (mesylate)
- Difference [1, 3]: −0.51
- Cholesterol-free [1, 4]: 1.404
- Complete [1, 5]: 0.8982
- Cholesterol-free media + simvastatin (0.04 μM) ([2]; NCI-H292 cells, cholesterol-free media with simvastatin 0.04 μM, FDA drug library screen (TABLE 2)): 0.9072
- Complete Media ([2]; NCI-H292 cells, complete media, FDA drug library screen (TABLE 2)): 0.8992
- Difference ([2]; complete media minus cholesterol-free media + simvastatin (0.04 μM), >0 enhanced anti-cancer activity, about 0 neutral, <0 antagonist): −0.01

Compound: O=C1CCCC(=O)C1C(=O)c1ccc(C(F)(F)F)cc1[N+](=O)[O-] [Nitisinone]
- Difference ([1]; Complete minus Cholesterol-free, greater than 0 enhanced anti-cancer activity, about 0 neutral, below 0 antagonist): −0.08
- Cholesterol-free [1, 18]: 0.8746
- Complete [1, 7]: 0.7963
- Cholesterol-free media + simvastatin (0.04 μM) [2, 6]: 0.9427
- Complete Media [2, 7]: 1.188
- Difference [2, 8]: 0.25

Compound: CC1(C)CCC[C@](C)([C@H]2CC[C@]3(C)[C@@H]2[C@H](O)C[C@@H]2[C@@]4(C)CC[C@H](O)C(C)(C)[C@@H]4[C@@H](O)C[C@]23C)O1 [Panaxatriol]
- Difference [1, 11]: −0.09
- Cholesterol-free [1, 18]: 1.136
- Complete [1, 7]: 1.044
- Cholesterol-free media + simvastatin (0.04 μM) [2, 6]: 1.085
- Complete Media [2, 7]: 0.956
- Difference [2, 17]: −0.13

Compound: NC(CO)(CO)CO [Trometamol]
- Cholesterol-free [1, 10]: 1.471
- Complete ([1]; NCI-H292 cells, complete media): 1.133
- Difference ([1]; complete vs cholesterol-free media, greater than 0 enhanced anti-cancer activity, about 0 neutral, below 0 antagonists): −0.34
- Cholesterol-free media + simvastatin (0.04 μM) [2, 6]: 1.116
- Complete Media [2, 7]: 0.9694
- Difference [2, 19]: −0.15

Compound: CN(C)CCC=C1c2ccccc2CCc2ccccc21 [Amitriptyline (hydrochloride)]
- Cholesterol-free [1, 12]: 0.8567
- Complete [1, 13]: 1.344
- Difference ([1]; complete vs cholesterol-free media, >0 enhanced anti-cancer activity, about 0 neutral, <0 antagonist): 0.49
- Cholesterol-free media + simvastatin (0.04 μM) [2, 6]: 0.9551
- Complete Media [2, 7]: 0.8184
- Difference [2, 19]: −0.14

Compound: Clc1ccc2c(N3CCN(CCCN4CCN(c5ccnc6cc(Cl)ccc56)CC4)CC3)ccnc2c1
- Cholesterol-free [1, 10]: 1.226
- Complete ([1]; NCI-H292 cells, complete media): 0.8255
- Difference ([1]; complete vs cholesterol-free media, […]): −0.40
- Cholesterol-free media + simvastatin (0.04 μM) [2, 6]: 0.9008
- Complete Media [2, 7]: 1.047
- Difference [2, 14]: 0.15

Compound: C[C@H]1COc2c(N3CCN(C)CC3)c(F)cc3c(=O)c(C(=O)O)cn1c23 [Levofloxacin (hydrate)]
- Difference [1, 3]: −0.48
- Cholesterol-free [1, 4]: 1.308
- Complete [1, 5]: 0.8243
- Cholesterol-free media + simvastatin (0.04 μM) [2, 6]: 1.078
- Complete Media [2, 7]: 0.9583
- Difference [2, 19]: −0.12

Compound: COc1ccc(CCN(C)CCCC(C#N)(c2ccc(OC)c(OC)c2)C(C)C)cc1OC (stereo not drawn) [Verapamil (hydrochloride)]
- Cholesterol-free [1]: 0.9873
- Complete [1]: 0.8558
- Difference [1]: −0.13
- Cholesterol-free media + simvastatin (0.04 μM) [2]: 1.071
- Complete Media [2]: 1.013
- Difference [2]: −0.06

Compound: C[C@H]1C(=O)O[C@@H]2CCN3CC=C(COC(=O)[C@](C)(O)[C@]1(C)O)[C@H]23 [Monocrotaline]
- Difference [1, 11]: −0.18
- Cholesterol-free [1, 18]: 1.01
- Complete [1, 7]: 0.8289
- Cholesterol-free media + simvastatin (0.04 μM) ([2]; NCI-H292 cells, drug in cholesterol-free media with simvastatin 0.04 μM): 1.209
- Complete Media ([2]; NCI-H292 cells, drug in complete media): 1.046
- Difference [2, 17]: −0.16

Compound: C[C@@H](CN1CC(=O)NC(=O)C1)N1CC(=O)NC(=O)C1 [Dexrazoxane (hydrochloride)]
- Difference [1, 9]: 0.03
- Cholesterol-free [1, 12]: 0.9516
- Complete [1, 13]: 0.9799
- Cholesterol-free media + simvastatin (0.04 μM) [2, 15]: 1.279
- Complete Media [2, 16]: 1.002
- Difference [2, 19]: −0.28
